A value given as a limit tells only on which side of the number the result lay.

Six compounds from ChEMBL document CHEMBL5214958, “Discovery of novel compounds as potent activators of Sirt3” (Bioorg Med Chem, 2022) can be followed below.

In experiment [1] the target is T1, NAD-dependent protein deacetylase sirtuin-3, mitochondrial (Homo sapiens, UniProt Q9NTG7).
T1 sequence (Q9NTG7 whole entry): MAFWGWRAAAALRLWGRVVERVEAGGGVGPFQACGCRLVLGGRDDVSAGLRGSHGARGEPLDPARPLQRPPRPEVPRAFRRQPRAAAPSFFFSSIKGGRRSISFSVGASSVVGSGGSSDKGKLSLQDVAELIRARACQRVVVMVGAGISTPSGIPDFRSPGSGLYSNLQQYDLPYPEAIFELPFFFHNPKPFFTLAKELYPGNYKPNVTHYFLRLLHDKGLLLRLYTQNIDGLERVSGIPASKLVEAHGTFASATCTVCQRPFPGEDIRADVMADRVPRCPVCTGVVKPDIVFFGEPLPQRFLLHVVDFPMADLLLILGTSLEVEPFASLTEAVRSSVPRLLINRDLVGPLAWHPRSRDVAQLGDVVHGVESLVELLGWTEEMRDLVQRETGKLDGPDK
Description: Binding affinity to human Sirt3 (118 to 399 residues) assessed as dissociation constant using acetylated MnSOD peptide as substrate by microscale thermophoresis analysis. On the technique in general: In MST a laser heats a spot of the sample, and binding alters the fluorescence response.

The target of experiment [2] is T1, NAD-dependent protein deacetylase sirtuin-3, mitochondrial. Description: Binding affinity to human Sirt3 (118 to 399 residues) assessed as dissociation constant using acetylated MnSOD peptide as substrate in presence of honokiol by microscale thermophoresis analysis.
Experiment [3] deals with T2, NAD-dependent protein deacetylase sirtuin-3, mitochondrial (Homo sapiens) (UniProt Q9NTG7).
T2 sequence (whole entry): T1 sequence (Q9NTG7 whole entry)
Description: Modulation of human Sirt3 (118 to 399 residues) deacetylation activity under non-steady state assessed as substrate deacetylation at low enzyme concentration with [E]0/[NAD+]0 ratio of 0.3 at 10 uM incubated for 2 mins using MnSOD peptide as substrate in presence of NAD+ by HPLC-assay relative to control. The note with it: filed as modulator.

Experiment [4] has as its target T2, NAD-dependent protein deacetylase sirtuin-3, mitochondrial (Homo sapiens). Description: Modulation of human Sirt3 (118 to 399 residues) deacetylation activity under non-steady state assessed as substrate deacetylation at high enzyme concentration with [E]0/[NAD+]0 ratio of 0.6 at 10 uM incubated for 2 mins using MnSOD peptide as substrate in presence of NAD+ by HPLC-assay relative to control. The note with it: filed as modulator.

Experiment [5] has the same target. The experiment can be described thus: Modulation of human Sirt3 (118 to 399 residues) deacetylation activity under non-steady state assessed as substrate deacetylation at low enzyme concentration with [E]0/[NAD+]0 ratio of 0.1 at 10 uM incubated for 2 mins using MnSOD peptide as substrate in presence of NAD+ by HPLC-assay relative to control. Particulars: filed as modulator.

Experiment [6] has as its target T1, NAD-dependent protein deacetylase sirtuin-3, mitochondrial. Description: Modulation of human Sirt3 (118 to 399 residues) deacetylation activity under non-steady state assessed as substrate deacetylation at low enzyme concentration with [E]0/[NAD+]0 ratio of 0.1 incubated for 5 mins using MnSOD peptide as substrate in presence of NAD+ by HPLC-assay relative to control.

The target is the same in experiment [7]. The experiment can be described thus: Binding affinity to human Sirt3 (118 to 399 residues) assessed as dissociation constant (Koff) by short DNA nano levers based switchSENSE microfluid bio-chip analysis.
For experiment [8] the target is unchanged. The experiment can be described thus: Binding affinity to human Sirt3 (118 to 399 residues) assessed as dissociation constant (Koff) of ternary complex using acetylated MnSOD peptide as substrate in presence of OAADPr by short DNA nano levers based switchSENSE microfluid bio-chip analysis.
Experiment [9] shares this target. Description: Binding affinity to human Sirt3 (118 to 399 residues) assessed as dissociation constant of ternary complex using acetylated MnSOD peptide as substrate in presence of OAADPr by short DNA nano levers based switchSENSE microfluid bio-chip analysis.
Experiment [10] shares this target. The experiment can be described thus: Binding affinity to human Sirt3 (118 to 399 residues) assessed as dissociation constant of ternary complex using acetylated MnSOD peptide as substrate in presence of OAADPr by microscale thermophoresis analysis.
For experiment [11] the target is unchanged. The experiment can be described thus: Binding affinity to human Sirt3 (118 to 399 residues) assessed as dissociation constant using 625nM acetylated MnSOD peptide as substrate by microscale thermophoresis analysis.

On to `NC(=O)c1ccc[n+]([C@@H]2C[C@H](COP(=O)(O)OP(=O)(O)OC[C@H]3O[C@@H](n4cnc5c(N)ncnc54)[C@H](O)[C@@H]3O)[C@@H](O)[C@H]2O)c1`, for which the Kd in experiment [1] amounted to 7.3 µM; in [2] it was 6.6 µM.

Take `CCCCNC(=O)[C@@H](Cc1ccc(Cl)cc1)NC(=O)CSC(=S)c1ccccc1`: the Activity in experiment [3] amounted to 100%.

Regarding `C=C(CC)C(=O)c1ccc(OCC(=O)N[C@H](Cc2ccc(Cl)cc2)C(=O)NCCCC)c(Cl)c1Cl`, the Activity in [3] was determined as 104%; in [4] it was 107%.

Regarding `Cc1ccc(-c2nc3n(n2)C(=O)CC(c2cccc4ccccc24)S3)cc1` (stereo not given), the Activity in experiment [4] is 127%; in experiment [5], 114%.

In the case of `CCCCNC(=O)COc1ccc2c(c1)CCc1ccccc1C2NC(=O)CCCOc1cc([N+](=O)[O-])c(C(C)O)cc1OC` (stereo not given), in experiment [6], the concentration giving a half-maximal response (EC50) was under 5 µM. For the same compound, the Kd in experiment [7] came to 0.22 s⁻¹; in experiment [8], 0.162 s⁻¹; in [9] it was 12.6 µM.

Consider `C=CCc1ccc(O)c(-c2ccc(O)c(CC=C)c2)c1` [HONOKIOL], for which the Activity in experiment [3] came to 108%. Besides, the Kd is 0.97 µM in [1], 0.29 µM in [10] and 2.99 µM in experiment [11].

The EC50 is the concentration needed to bring the measured effect to its halfway point.
